Assay results: ChEMBL document CHEMBL5113490, “Discovery of CN0 as a novel proteolysis-targeting chimera (PROTAC) degrader of PARP1 that can activate the cGAS/STING immunity pathway combined with daunorubicin” (Bioorg Med Chem, 2022)
Active and inactive are the calls of the source. No cut-off for these calls is given here.

Experiments:
MDA-MB-231 [1] = assay: Growth inhibition of human MDA-MB-231 cells at 0.25 uM; assay type: functional; settings: read-out: GI
MDA-MB-231 [2] = assay: Growth inhibition of human MDA-MB-231 cells at 4 uM; assay type: functional; settings: read-out: GI
[3] = Cytotoxicity against human MCF-10A cells assessed as growth inhibition at 0.25 uM; assay type: toxicity, cell-based; settings: read-out: GI
4T1 [4] = assay: Growth inhibition of mouse 4T1 cells at 0.5 uM; assay type: functional; settings: read-out: GI
4T1 [5] = assay: Growth inhibition of mouse 4T1 cells at 1 uM; assay type: functional; settings: read-out: GI
MDA-MB-231 [6] = assay: Growth inhibition of human MDA-MB-231 cells at 1 uM; assay type: functional; settings: read-out: GI
[7] = Cytotoxicity against human MCF-10A cells assessed as growth inhibition at 0.5 uM; assay type: toxicity, cell-based; settings: read-out: GI
4T1 [8] = assay: Growth inhibition of mouse 4T1 cells at 0.25 uM; assay type: functional; settings: read-out: GI
MDA-MB-231 [9] = assay: Antiproliferative activity against human MDA-MB-231 cells assessed as increase in cell killing by T cells at 10 uM in presence of 0.5 uM daunorubicin measured after 24 hrs by flow cytometry analysis; assay type: functional, cell-based
4T1 [10] = assay: In vivo protac activity at CRBN/PARP1 in mouse 4T1 cells xenografted in mouse assessed as PARP1 degradation at 25 mg/kg, ip administered once a day; assay type: functional, organism-based
MDA-MB-231 [11] = assay: Growth inhibition of human MDA-MB-231 cells assessed as combination index at 10 uM in presence of 4 uM daunorubicin; assay type: functional
[12] = Cytotoxicity against human MCF-10A cells assessed as growth inhibition at 10 uM in presence of 0.5 uM daunorubicin; assay type: toxicity, cell-based; settings: read-out: GI
4T1 [13] = assay: Growth inhibition of mouse 4T1 cells assessed as combination index at 10 uM in presence of 1 uM daunorubicin; assay type: functional
[14] = Half-life in rat at 8 mg/kg, iv; assay type: ADME, organism-based; settings: in vivo
MDA-MB-231 [15] = assay: Activation of cGAS/STING pathway in human MDA-MB-231 cells assessed as upregulation of cGAS mRNA expression at 10 uM in presence of 0.5 uM daunorubicin measured after 24 hrs; assay type: cell-based; settings: filed as activator
MDA-MB-231 [16] = assay: Activation of cGAS/STING pathway in human MDA-MB-231 cells assessed as upregulation of CXCL9 mRNA expression at 10 uM in presence of 0.5 uM daunorubicin measured after 24 hrs; assay type: cell-based; settings: filed as activator
MDA-MB-231 [17] = assay: Inhibition of DNA repair in human MDA-MB-231 cells assessed as induction of free cytosolic dsDNA at 5 uM in presence of 0.5 uM daunorubicin measured after 24 hrs by DAPI staining method; assay type: functional, cell-based
MDA-MB-231 [18] = assay: Activation of cGAS/STING pathway in human MDA-MB-231 cells assessed as upregulation of CCL5 mRNA expression at 10 uM in presence of 0.5 uM daunorubicin measured after 24 hrs; assay type: cell-based; settings: filed as activator
MDA-MB-231 [19] = assay: Activation of cGAS/STING pathway in human MDA-MB-231 cells assessed as increase in TBK1 phosphorylation at S172 residue at 10 uM in presence of 0.5 uM daunorubicin measured after 24 hrs; assay type: cell-based; settings: filed as activator
MDA-MB-231 [20] = assay: Activation of cGAS/STING pathway in human MDA-MB-231 cells assessed as increase in STING phosphorylation at 10 uM in presence of 0.5 uM daunorubicin measured after 24 hrs; assay type: cell-based; settings: filed as activator
[21] = Toxicity in immunocompetent mouse allografted with mouse 4T1 cells assessed as effect on body weight at 25 mg/kg, ip administered once a day in presence of daunorubicin at 0.5 mg/kg, ip administered once a day; assay type: organism-based; settings: in vivo
MDA-MB-231 [22] = assay: Growth inhibition of human MDA-MB-231 cells at 10 uM in presence of 4 uM daunorubicin; assay type: functional; settings: read-out: GI
MDA-MB-231 [23] = assay: Activation of cGAS/STING pathway in human MDA-MB-231 cells assessed as increase in P65 phosphorylation at 10 uM in presence of 0.5 uM daunorubicin measured after 24 hrs; assay type: cell-based; settings: filed as activator
[24] = Cmax in rat at 8 mg/kg, iv; assay type: ADME, organism-based; parameters: dose 8 mg/kg, route iv; settings: in vivo
[25] = Cytotoxicity against human MCF-10A cells assessed as growth inhibition at 10 uM in presence of 0.25 uM daunorubicin; assay type: toxicity, cell-based; settings: read-out: GI
[26] = target: T1, Protein cereblon/Poly [ADP-ribose] polymerase 1 (Homo sapiens, UniProt P09874+Q96SW2); assay: Protac activity at CRBN/PARP1 in human MDA-MB-231 cells assessed as PARP1 degradation measured after 24 hrs; assay type: cell-based
Target sequence in this assay (P09874 whole entry): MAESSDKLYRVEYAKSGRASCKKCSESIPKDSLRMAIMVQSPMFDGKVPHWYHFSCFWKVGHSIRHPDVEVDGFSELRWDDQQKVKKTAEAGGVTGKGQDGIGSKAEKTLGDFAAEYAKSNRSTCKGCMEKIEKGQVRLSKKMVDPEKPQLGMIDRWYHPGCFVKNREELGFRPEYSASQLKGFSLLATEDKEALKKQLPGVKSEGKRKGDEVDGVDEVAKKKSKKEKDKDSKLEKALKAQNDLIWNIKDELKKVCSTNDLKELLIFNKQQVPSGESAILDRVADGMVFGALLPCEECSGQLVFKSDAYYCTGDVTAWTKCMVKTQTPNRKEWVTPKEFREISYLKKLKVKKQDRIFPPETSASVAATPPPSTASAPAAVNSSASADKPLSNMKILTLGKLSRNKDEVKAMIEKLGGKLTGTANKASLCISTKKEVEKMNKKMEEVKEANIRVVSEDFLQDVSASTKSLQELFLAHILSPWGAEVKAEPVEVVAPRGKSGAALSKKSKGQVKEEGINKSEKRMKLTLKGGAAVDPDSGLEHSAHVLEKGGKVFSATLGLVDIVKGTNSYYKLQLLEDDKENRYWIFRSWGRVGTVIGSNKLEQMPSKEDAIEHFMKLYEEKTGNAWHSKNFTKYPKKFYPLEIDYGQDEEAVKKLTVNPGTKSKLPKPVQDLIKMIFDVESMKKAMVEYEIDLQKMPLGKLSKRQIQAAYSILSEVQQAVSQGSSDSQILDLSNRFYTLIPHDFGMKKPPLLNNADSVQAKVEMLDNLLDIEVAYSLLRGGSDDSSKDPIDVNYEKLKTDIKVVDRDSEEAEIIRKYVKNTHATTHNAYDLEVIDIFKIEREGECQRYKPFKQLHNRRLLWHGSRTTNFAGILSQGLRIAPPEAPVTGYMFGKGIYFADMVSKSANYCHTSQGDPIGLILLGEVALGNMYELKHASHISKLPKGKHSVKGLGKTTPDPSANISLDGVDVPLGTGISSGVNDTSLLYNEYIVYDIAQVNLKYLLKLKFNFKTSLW
Target sequence in this assay (Q96SW2 whole entry): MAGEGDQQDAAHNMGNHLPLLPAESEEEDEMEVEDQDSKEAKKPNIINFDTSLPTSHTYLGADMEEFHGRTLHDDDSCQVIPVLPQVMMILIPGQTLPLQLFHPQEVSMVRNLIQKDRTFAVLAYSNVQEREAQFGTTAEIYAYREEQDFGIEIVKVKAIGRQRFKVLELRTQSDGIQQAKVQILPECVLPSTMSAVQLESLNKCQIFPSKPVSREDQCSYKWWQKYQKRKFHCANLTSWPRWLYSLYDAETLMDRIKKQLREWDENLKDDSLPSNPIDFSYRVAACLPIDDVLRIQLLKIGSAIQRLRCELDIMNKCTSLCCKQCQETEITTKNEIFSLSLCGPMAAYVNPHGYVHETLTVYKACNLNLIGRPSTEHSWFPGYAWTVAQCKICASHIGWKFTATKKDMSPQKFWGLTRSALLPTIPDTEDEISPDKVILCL

4T1 [27] = assay: Growth inhibition of mouse 4T1 cells at 10 uM; assay type: functional; settings: read-out: GI
MDA-MB-231 [28] = assay: Growth inhibition of human MDA-MB-231 cells assessed as combination index at 10 uM in presence of 1 uM daunorubicin; assay type: functional
MDA-MB-231 [29] = assay: Activation of cGAS/STING pathway in human MDA-MB-231 cells assessed as increase in IRF3 phosphorylation at S396 residue at 10 uM in presence of 0.5 uM daunorubicin measured after 24 hrs; assay type: cell-based; settings: filed as activator
4T1 [30] = assay: Antitumor activity against mouse 4T1 cells allografted in immunocompetent mouse assessed as increase in CD8-positive T cells at 25 mg/kg, ip administered once a day in presence of daunorubicin at 0.5 mg/kg, ip administered once a day; assay type: functional, organism-based
[31] = target: T1, Protein cereblon/Poly [ADP-ribose] polymerase 1; assay: Protac activity at CRBN/PARP1 in human MDA-MB-231 cells assessed as PARP1 degradation at 10 uM measured after 3 hrs in presence of 10 uM Z-VAD-FMK; assay type: cell-based
Target sequence in this assay (P09874 2-1014 limits assumed): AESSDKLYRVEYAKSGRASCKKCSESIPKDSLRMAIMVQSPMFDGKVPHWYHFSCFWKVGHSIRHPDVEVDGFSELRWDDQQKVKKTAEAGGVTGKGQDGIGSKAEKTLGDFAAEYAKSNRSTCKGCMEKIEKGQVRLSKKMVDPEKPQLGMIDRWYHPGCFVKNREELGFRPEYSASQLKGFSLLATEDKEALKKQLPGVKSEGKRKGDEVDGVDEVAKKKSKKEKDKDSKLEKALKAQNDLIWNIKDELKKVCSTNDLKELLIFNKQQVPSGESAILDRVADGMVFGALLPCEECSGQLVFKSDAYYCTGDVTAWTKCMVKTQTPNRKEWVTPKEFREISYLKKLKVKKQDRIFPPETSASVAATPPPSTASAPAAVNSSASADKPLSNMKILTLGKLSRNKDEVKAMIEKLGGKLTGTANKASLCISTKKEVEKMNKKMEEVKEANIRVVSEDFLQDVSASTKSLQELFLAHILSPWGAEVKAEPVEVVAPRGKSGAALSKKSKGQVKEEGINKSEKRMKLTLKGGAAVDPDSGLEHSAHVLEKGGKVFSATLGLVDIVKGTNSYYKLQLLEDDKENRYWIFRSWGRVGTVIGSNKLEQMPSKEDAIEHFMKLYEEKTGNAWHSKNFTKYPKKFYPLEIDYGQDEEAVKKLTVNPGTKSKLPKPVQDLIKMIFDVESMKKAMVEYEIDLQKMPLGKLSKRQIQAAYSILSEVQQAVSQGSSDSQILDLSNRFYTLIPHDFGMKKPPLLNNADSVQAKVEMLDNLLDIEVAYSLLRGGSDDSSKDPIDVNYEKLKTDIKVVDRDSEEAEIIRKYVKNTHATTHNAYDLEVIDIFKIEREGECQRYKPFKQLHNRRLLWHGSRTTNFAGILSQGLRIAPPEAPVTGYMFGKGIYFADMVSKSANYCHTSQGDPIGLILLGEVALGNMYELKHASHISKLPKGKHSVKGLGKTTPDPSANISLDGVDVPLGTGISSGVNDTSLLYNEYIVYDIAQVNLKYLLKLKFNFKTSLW
Target sequence in this assay (Q96SW2 whole entry partner): as the sequence (Q96SW2 whole entry) above

[32] = AUC (0 to t) in rat at 8 mg/kg, iv; assay type: ADME, organism-based; parameters: dose 8 mg/kg, route iv; settings: in vivo
[33] = MRT in rat at 8 mg/kg, iv; assay type: ADME, organism-based; settings: in vivo
MDA-MB-231 [34] = assay: Growth inhibition of human MDA-MB-231 cells at 10 uM; assay type: functional; settings: read-out: GI
MDA-MB-231 [35] = assay: Growth inhibition of human MDA-MB-231 cells at 10 uM in presence of 0.25 uM daunorubicin; assay type: functional; settings: read-out: GI
MDA-MB-231 [36] = assay: Inhibition of DNA repair in human MDA-MB-231 cells assessed as induction of gamma-H2AX level at 10 uM in presence of 0.5 uM daunorubicin measured after 2 hrs by western blot analysis; assay type: functional, cell-based
[37] = target: T1, Protein cereblon/Poly [ADP-ribose] polymerase 1; assay: Protac activity at CRBN/PARP1 in human MDA-MB-231 cells assessed as PARP1 degradation at 10 uM measured after 4 to 48 hrs; assay type: cell-based; settings: time 4-48 hrs
Target sequence in this assay (P09874 2-1014 limits assumed): as the sequence (P09874 2-1014 limits assumed) above
Target sequence in this assay (Q96SW2 whole entry partner): as the sequence (Q96SW2 whole entry) above

4T1 [38] = assay: Growth inhibition of mouse 4T1 cells at 10 uM in presence of 0.5 uM daunorubicin; assay type: functional; settings: read-out: GI
[39] = target: Protein cereblon (Homo sapiens) (UniProt Q96SW2); assay: Binding affinity to CRBN in human MDA-MB-231 cells measured by thermal shift assay; assay type: cell-based
4T1 [40] = assay: Growth inhibition of mouse 4T1 cells at 10 uM in presence of 0.25 uM daunorubicin; assay type: functional; settings: read-out: GI
MDA-MB-231 [41] = assay: Activation of cGAS/STING pathway in human MDA-MB-231 cells assessed as upregulation of CXCL10 mRNA expression at 10 uM in presence of 0.5 uM daunorubicin measured after 24 hrs; assay type: cell-based; settings: filed as activator
4T1 [42] = assay: Growth inhibition of mouse 4T1 cells assessed as combination index at 10 uM in presence of 0.25 uM daunorubicin; assay type: functional
MDA-MB-231 [43] = assay: Growth inhibition of human MDA-MB-231 cells assessed as combination index at 10 uM in presence of 0.25 uM daunorubicin; assay type: functional
4T1 [44] = assay: Growth inhibition of mouse 4T1 cells at 10 uM in presence of 1 uM daunorubicin; assay type: functional; settings: read-out: GI
4T1 [45] = assay: Antitumor activity against mouse 4T1 cells allografted in immunocompetent mouse assessed as reduction in tumor volume at 25 mg/kg, ip administered once a day in presence of daunorubicin at 0.5 mg/kg, ip administered once a day; assay type: functional, organism-based
[46] = Cytotoxicity against human MCF-10A cells assessed as growth inhibition at 10 uM; assay type: toxicity, cell-based; settings: read-out: GI
4T1 [47] = assay: Growth inhibition of mouse 4T1 cells assessed as combination index at 10 uM in presence of 0.5 uM daunorubicin; assay type: functional
MDA-MB-231 [48] = assay: Growth inhibition of human MDA-MB-231 cells at 10 uM in presence of 1 uM daunorubicin; assay type: functional; settings: read-out: GI
MDA-MB-231 [49] = assay: Activation of cGAS/STING pathway in human MDA-MB-231 cells assessed as upregulation of STING mRNA expression at 10 uM in presence of 0.5 uM daunorubicin measured after 24 hrs; assay type: cell-based; settings: filed as activator

Protein cereblon (Homo sapiens), sequence (Q96SW2 whole entry): as above

COc1cccc2c1C(=O)c1c(O)c3c(c(O)c1C2=O)C[C@@](O)(C(C)=O)C[C@@H]3O[C@H]1C[C@H](N)[C@H](O)[C@H](C)O1 [DAUNORUBICIN]
inhibition of growth at 0.25 µM (MDA-MB-231 [1]): 9.76% | inhibition of growth at 4 µM (MDA-MB-231 [2]): 36.9% | inhibition at 0.25 µM [3]: 35% | inhibition of growth at 0.5 µM (4T1 [4]): 63.6% | inhibition of growth at 1 µM (4T1 [5]): 69.8% | inhibition of growth at 1 µM (MDA-MB-231 [6]): 10.7% | inhibition at 0.5 µM [7]: 46.1% | inhibition of growth at 0.25 µM (4T1 [8]): 60%

NC(=O)c1cccc2cn(-c3ccc(C4CCCN(c5cccc6c5C(=O)N(C5CCC(=O)NC5=O)C6=O)C4)cc3)nc12 (centres undefined)
Activity (MDA-MB-231 [9]): Active | Activity (4T1 [10]): Active | CI (MDA-MB-231 [11]): 0.12 | inhibition at 10 µM [12]: 41.2% | CI (4T1 [13]): 0.0001 | half-life [14]: 1.87 h | Activity (MDA-MB-231 [15]): Active | Activity (MDA-MB-231 [16]): Active | inhibition (MDA-MB-231 [17]): Active | Activity (MDA-MB-231 [18]): Active | Activity (MDA-MB-231 [19]): Active | Activity (MDA-MB-231 [20]): Active | Activity [21]: Non-Toxic | inhibition of growth at 10 µM (MDA-MB-231 [22]): 59.8% | Activity (MDA-MB-231 [23]): Active | Cmax [24]: 5770 ng/mL | inhibition at 10 µM [25]: 35% | DC50 [26]: 252 nM | inhibition of growth at 10 µM (4T1 [27]): 2.71% | CI (MDA-MB-231 [28]): 0.06 | Activity (MDA-MB-231 [29]): Active | Activity (4T1 [30]): Active | Activity [31]: Active | AUC(0-t) [32]: 6960 ng·h/mL | MRT [33]: 2.55 h | inhibition of growth at 10 µM (MDA-MB-231 [34]): 4.55% | inhibition of growth at 10 µM (MDA-MB-231 [35]): 22.5% | inhibition (MDA-MB-231 [36]): Active | Activity [37]: Active | inhibition of growth at 10 µM (4T1 [38]): 70.1% | Activity [39]: Active | inhibition of growth at 10 µM (4T1 [40]): 65.5% | Activity (MDA-MB-231 [41]): Active | CI (4T1 [42]): 0.44 | CI (MDA-MB-231 [43]): 0.21 | inhibition of growth at 10 µM (4T1 [44]): 98.2% | Activity (4T1 [45]): Active | inhibition at 10 µM [46]: 4.93% | CI (4T1 [47]): 0.45 | inhibition of growth at 10 µM (MDA-MB-231 [48]): 38.1% | Activity (MDA-MB-231 [49]): Active
